Assay results from EP0354047A2, “Herbicidal method using atrazine” (MAY & BAKER LIMITED, priority 1988, dated 1990).

How the values were obtained:
[1] = system: Eleusine indica; assay: Experiment 2: glasshouse experiment, seedlings at 4-leaf stage, percentage phytotoxicity after 19 days; type: in vivo
Experimental: Agricultural surfactant - nonylphenol ethylene oxide condensate containing 9 moles ethylene oxide (in a commercial composition) was added to all spray dilutions to give 0.2% v/v concentration. […] The ED50 values were as follows:- The results were then used to plot an isobole with a "two-sided effect" according to the methods of […] op. cit. The isobole produced, shown hereinafter in Figure 1 was clearly a type III curve ([…]., page 75), characteristic of synergism.

[2] = system: Amaranthus retroflexus; assay: Experiment 3: glasshouse, post-emergence, fresh weight after 19 days, % inhibition of growth; type: in vivo; conditions: for inhibition at 8 g/ha / inhibition at 16 g/ha / inhibition at 31 g/ha / inhibition at 63 g/ha / inhibition at 125 g/ha: Amaranthus retroflexus, post-emergence; for inhibition at 8 g/ha: Atrazine 8 g/ha alone; for inhibition at 16 g/ha: Atrazine 16 g/ha alone; for inhibition at 31 g/ha: Atrazine 31 g/ha alone; for inhibition at 63 g/ha: Atrazine 63 g/ha alone; for inhibition at 125 g/ha: Atrazine 125 g/ha alone; for ED₉₀: Atrazine alone
Experimental: (§1) A series of experiments was carried out to determine the nature of the biological interaction between atrazine and five compounds of general formula I on a range of weed species. […] The growth stages of the plants at spraying are also presented with the results. Agricultural surfactant (nonyl phenol ethylene oxide condensate containing 9 moles ethylene oxide marketed as 'Agral') was added to all spray dilutions to give 0.2% v/v concentration. […] After 19 days the fresh weight of vegetation in each pot was determined. […] E = […]00003:character} where E, X and Y are percentage inhibition of growth. In addition, the ED50 or ED90 values (the application rates giving 50% or 90% inhibition of growth, respectively) were calculated from the results for the piperidinedione alone and with increasing rates of atrazine.

[3] = system: Bidens pilosa; assay: as above; type: in vivo; conditions: 2 leaves
Experimental: as §1

[4] = system: Brassica kaber; assay: as above; type: in vivo; conditions: for ED₅₀ / ED₉₀: Atrazine alone; for inhibition at 8 g/ha / inhibition at 16 g/ha / inhibition at 31 g/ha / inhibition at 63 g/ha / inhibition at 125 g/ha: Mutarda arvensis, post-emergence; for inhibition at 8 g/ha: Atrazine 8 g/ha alone; for inhibition at 16 g/ha: Atrazine 16 g/ha alone; for inhibition at 31 g/ha: Atrazine 31 g/ha alone; for inhibition at 63 g/ha: Atrazine 63 g/ha alone; for inhibition at 125 g/ha: Atrazine 125 g/ha alone
Experimental: as §1

[5] = system: Digitaria sanguinalis; assay: as above; type: in vivo; conditions: 3 leaves
Experimental: as §1

[6] = system: Eleusine indica; assay: as above; type: in vivo; conditions: 3 leaves
Experimental: as §1

[7] = system: Sesbania exactata; assay: as above; type: in vivo; conditions: 2 leaves
Experimental: as §1

[8] = system: Solanum nigrum; assay: as above; type: in vivo; conditions: for ED₉₀: Atrazine alone; for inhibition at 8 g/ha / inhibition at 16 g/ha / inhibition at 31 g/ha / inhibition at 63 g/ha / inhibition at 125 g/ha: Solanum nigrum, post-emergence; for inhibition at 8 g/ha: Atrazine 8 g/ha alone; for inhibition at 16 g/ha: Atrazine 16 g/ha alone; for inhibition at 31 g/ha: Atrazine 31 g/ha alone; for inhibition at 63 g/ha: Atrazine 63 g/ha alone; for inhibition at 125 g/ha: Atrazine 125 g/ha alone
Experimental: as §1

[9] = system: Xanthium strumarium; assay: as above; type: in vivo; conditions: 2 leaves
Experimental: as §1

[10] = system: maize var.Irla; assay: Experiment 5: glasshouse, crop plants at 3 leaf stage, percentage phytotoxicity after 12 days; conditions: for % crop phytotoxicity Maize (3 leaves): Compound 74 0 g/ha
Experimental: An experiment was carried out to determine the biological interaction between atrazine and Compound 74 on maize. A wide range of dose rates of atrazine i.e. 250, 500, 1000 and 2000 g/ha (in a commercial suspension concentrate formulation containing 500g/l w/v atrazine) and of Compound 74 i.e. 31, 63, 125, 250, 1000 and 2000 g/ha (in a composition according to Example 2 as described hereinafter) were applied in a spray volume of 290litres/ha to four replicate 10cm square plastic plant pots of loam soil containing one maize plant, at the 3 leaf growth stage. Agricultural surfactant ('Agral') was added to the spray dilutions to give 0.2%v/v concentration.
After spraying the pots were arranged in randomised blocks in a glasshouse and watered as necessary. After 12 days the plants were assessed for percentage phytotoxicity (reduction in green area compared with unsprayed plants) (0 = no effect 100 = complete destruction).
E = X + Y […] where E, X and Y are percentage phytotoxicity.
The ED values were then used to plot an isobole according to the method of P.M.L. Tammes op cit. The results of percentage phytotoxicity, the ED₂₀ values calculated from them and the calculated expected value are given in Table 9.

With `CCNc1nc(Cl)nc(NC(C)C)n1` [Atrazine, 2-chloro-4-ethylamino-6-isopropylamino-1,3,5-triazine] the percentage phytotoxicity ([1]; Atrazine 125 g/ha alone) was 2%, the percentage phytotoxicity ([1]; Atrazine 250 g/ha alone) was 13% and the percentage phytotoxicity ([1]; Atrazine 500 g/ha alone) was 17%. The percentage phytotoxicity ([1]; Atrazine 1000 g/ha alone) was 43%, the ED₅₀ ([1]; Atrazine alone, 50% phytotoxicity) was 1193 g/ha and the inhibition at 8 g/ha ([2]; 2-4 leaves, Table 4) was 8%. The inhibition at 8 g/ha ([2]; 2 leaves, Table 1) was 36%, the inhibition at 8 g/ha ([2]; 2 leaves, Table 5) was 0% and the inhibition at 16 g/ha ([2]; 2-4 leaves, Table 4) was 26%. The inhibition at 16 g/ha ([2]; 2 leaves, Table 1) was 58%, the inhibition at 16 g/ha ([2]; 2 leaves, Table 5) was 58% and the inhibition at 31 g/ha ([2]; 2-4 leaves, Table 4) was 39%. It also gave an inhibition at 31 g/ha ([2]; 2 leaves, Table 1) of 81%, an inhibition at 31 g/ha ([2]; 2 leaves, Table 5) of 85% and an inhibition at 63 g/ha ([2]; 2-4 leaves, Table 4) of 56%. The inhibition at 63 g/ha ([2]; 2 leaves, Table 1) was 88%, the inhibition at 63 g/ha ([2]; 2 leaves, Table 5) was 71% and the inhibition at 125 g/ha ([2]; 2-4 leaves, Table 4) was 96%. The inhibition at 125 g/ha ([2]; 2 leaves, Table 1) was 95%, the inhibition at 125 g/ha ([2]; 2 leaves, Table 5) was 99% and the ED₉₀ ([2]; 2-4 leaves, Table 4) was “ED₉₀(g/ha) 105.79”. The ED₉₀ ([2]; 2 leaves, Table 1) was “ED₉₀(g/ha) 68.57”, the ED₉₀ ([2]; 2 leaves, Table 5) was “ED₉₀(g/ha) 53” and the ED₅₀ ([3]; Atrazine alone) was “ED₅₀(g/ha)63.17”. It also gave an inhibition at 8 g/ha ([3]; Bidens pilosa, post-emergence, Atrazine 8 g/ha alone) of 0%, an inhibition at 16 g/ha ([3]; Bidens pilosa, post-emergence, Atrazine 16 g/ha alone) of 0% and an inhibition at 31 g/ha ([3]; Bidens pilosa, post-emergence, Atrazine 31 g/ha alone) of 5%. For the same molecule, the inhibition at 63 g/ha ([3]; Bidens pilosa, post-emergence, Atrazine 63 g/ha alone) was 46%, the inhibition at 125 g/ha ([3]; Bidens pilosa, post-emergence, Atrazine 125 g/ha alone) was 92% and the ED₅₀ ([4]; 2-3 leaves, Table 4) was “ED₅₀(g/ha) 88.39”. For the same molecule, the ED₉₀ ([4]; 2 leaves, Table 5) was “ED₉₀(g/ha) 77”, the ED₉₀ ([4]; 2 leaves, Table 6) was “ED₉₀(g/ha) 62.14” and the ED₅₀ ([4]; 2 leaves, Table 7) was “ED₅₀(g/ha) 78.24”. For the same molecule, the inhibition at 8 g/ha ([4]; 2-3 leaves, Table 4) was 16%, the inhibition at 8 g/ha ([4]; 2 leaves, Table 5) was 0% and the inhibition at 8 g/ha ([4]; 2 leaves, Table 6) was 0%. It also gave an inhibition at 8 g/ha ([4]; 2 leaves, Table 7) of 0%, an inhibition at 16 g/ha ([4]; 2-3 leaves, Table 4) of 5% and an inhibition at 16 g/ha ([4]; 2 leaves, Table 5) of 21%. The inhibition at 16 g/ha ([4]; 2 leaves, Table 6) was 35%, the inhibition at 16 g/ha ([4]; 2 leaves, Table 7) was 0% and the inhibition at 31 g/ha ([4]; 2-3 leaves, Table 4) was 19%. The inhibition at 31 g/ha ([4]; 2 leaves, Table 5) was 42%, the inhibition at 31 g/ha ([4]; 2 leaves, Table 6) was 41% and the inhibition at 31 g/ha ([4]; 2 leaves, Table 7) was 17%. For the same molecule, the inhibition at 63 g/ha ([4]; 2-3 leaves, Table 4) was 30%, the inhibition at 63 g/ha ([4]; 2 leaves, Table 5) was 60% and the inhibition at 63 g/ha ([4]; 2 leaves, Table 6) was 91%. It also gave an inhibition at 63 g/ha ([4]; 2 leaves, Table 7) of 27%, an inhibition at 125 g/ha ([4]; 2-3 leaves, Table 4) of 57% and an inhibition at 125 g/ha ([4]; 2 leaves, Table 5) of 100%. For the same molecule, the inhibition at 125 g/ha ([4]; 2 leaves, Table 6) was 100%, the inhibition at 125 g/ha ([4]; 2 leaves, Table 7) was 75% and the ED₉₀ ([5]; Atrazine alone) was “ED₉₀ (g/ha) ∞”. For the same molecule, the inhibition at 125 g/ha ([5]; Digitaria sanguinalis, post-emergence, Atrazine 125 g/ha alone) was 25%, the inhibition at 500 g/ha ([5]; Digitaria sanguinalis, post-emergence, Atrazine 500 g/ha alone) was 24% and the inhibition at 1000 g/ha ([5]; Digitaria sanguinalis, post-emergence, Atrazine 1000 g/ha alone) was 32%. For the same molecule, the ED₅₀ ([6]; Atrazine alone) was “ED₅₀ (g/ha)664.61”, the inhibition at 125 g/ha ([6]; Eleusine indica, post-emergence, Atrazine 125 g/ha alone) was 4% and the inhibition at 500 g/ha ([6]; Eleusine indica, post-emergence, Atrazine 500 g/ha alone) was 36%. For the same molecule, the inhibition at 1000 g/ha ([6]; Eleusine indica, post-emergence, Atrazine 1000 g/ha alone) was 66%, the ED₉₀ ([7]; Atrazine alone) was “ED₉₀(g/ha)76.91” and the inhibition at 8 g/ha ([7]; Sesbania, post-emergence, Atrazine 8 g/ha alone) was 21%. It also gave an inhibition at 16 g/ha ([7]; Sesbania, post-emergence, Atrazine 16 g/ha alone) of 34%, an inhibition at 31 g/ha ([7]; Sesbania, post-emergence, Atrazine 31 g/ha alone) of 68% and an inhibition at 63 g/ha ([7]; Sesbania, post-emergence, Atrazine 63 g/ha alone) of 86%. For the same molecule, the inhibition at 125 g/ha ([7]; Sesbania, post-emergence, Atrazine 125 g/ha alone) was 96%, the ED₉₀ ([8]; 1-2 leaves, Table 4) was “ED₉₀(g/ha) 121.27” and the ED₉₀ ([8]; 1 leaf, Table 6) was “ED₉₀(g/ha) 59.35”. For the same molecule, the ED₉₀ ([8]; 2 leaves, Table 7) was “ED₉₀(g/ha) 72.94”, the inhibition at 8 g/ha ([8]; 1-2 leaves, Table 4) was 9% and the inhibition at 8 g/ha ([8]; 1 leaf, Table 6) was 19%. The inhibition at 8 g/ha ([8]; 2 leaves, Table 7) was 6%, the inhibition at 16 g/ha ([8]; 1-2 leaves, Table 4) was 47% and the inhibition at 16 g/ha ([8]; 1 leaf, Table 6) was 45%. For the same molecule, the inhibition at 16 g/ha ([8]; 2 leaves, Table 7) was 27%, the inhibition at 31 g/ha ([8]; 1-2 leaves, Table 4) was 47% and the inhibition at 31 g/ha ([8]; 1 leaf, Table 6) was 73%. The inhibition at 31 g/ha ([8]; 2 leaves, Table 7) was 35%, the inhibition at 63 g/ha ([8]; 1-2 leaves, Table 4) was 67% and the inhibition at 63 g/ha ([8]; 1 leaf, Table 6) was 94%. It also gave an inhibition at 63 g/ha ([8]; 2 leaves, Table 7) of 76%, an inhibition at 125 g/ha ([8]; 1-2 leaves, Table 4) of 90% and an inhibition at 125 g/ha ([8]; 1 leaf, Table 6) of 97%. For the same molecule, the inhibition at 125 g/ha ([8]; 2 leaves, Table 7) was 99%, the ED₉₀ ([9]; Atrazine alone) was “ED₉₀(g/ha) 138.01” and the inhibition at 8 g/ha ([9]; Xanthium strumarium, post-emergence, Atrazine 8 g/ha alone) was 25%. The inhibition at 16 g/ha ([9]; Xanthium strumarium, post-emergence, Atrazine 16 g/ha alone) was 21%, the inhibition at 31 g/ha ([9]; Xanthium strumarium, post-emergence, Atrazine 31 g/ha alone) was 72% and the inhibition at 63 g/ha ([9]; Xanthium strumarium, post-emergence, Atrazine 63 g/ha alone) was 59%. For the same molecule, the inhibition at 125 g/ha ([9]; Xanthium strumarium, post-emergence, Atrazine 125 g/ha alone) was 84%, the ED₂₀ ([10]; Atrazine alone) was “ED₂₀(g/ha) ∞” and the crop phytotoxicity ([10]; Atrazine alone) was “no crop phytotoxicity”. For the same molecule, the “% crop phytotoxicity Maize (3 leaves)” value ([10]; Atrazine 250 g/ha) was 0%, the “% crop phytotoxicity Maize (3 leaves)” value ([10]; Atrazine 500 g/ha) was 0% and the “% crop phytotoxicity Maize (3 leaves)” value ([10]; Atrazine 1000 g/ha) was 0%. The “% crop phytotoxicity Maize (3 leaves)” value ([10]; Atrazine 2000 g/ha) was 0%.
